Source: patent US4851521A, “Esters of hyaluronic acid” (priority 1985, dated 1989)

Test system: dextran-induced aseptic (exudative) phlogosis in rabbit eye
Assay: Anti-inflammatory activity: dextran-induced aseptic (exudative) phlogosis in rabbit eye
Type: in vivo
Conditions: for eyes without signs of phlogosis out of the total number of eyes treated: 3 drops every 6 hours, 4 treated eyes; for antiinflammatory activity (in words): compared with the corresponding cortisones
Procedure: 9 hyaluronic esters of cortisone, hydrocortisone and fluorocortisone (9 fluorohydrocortisone) identified by the code names HYC1-HYC9 were tested. Table 1 describes these compounds and gives the percentages of the number of carboxylic groups of HY which are esterified with the above corticosteroids, and where applicable the percentage esterified with simple aliphatic alcohols and those salified with alkaline metals (Na):
Aseptic (exudative) phlogosis was induced in 48 rabbits by intraocular injection of dextran (1% in saline, 0.1 ml). The various products were administered by instillation in the right eye (RE) of the rabbits, while in the left eye (LE) only vehicle was instilled.
The treament (3 drops every 6 hours) was begun immediately after the injection of dextran and was continued for 16 days.
Both eyes of each rabbit were observed through a slit lamp. In particular the following were examined: the state of the conjunctiva and corneal epithelium, the anterior chamber (presence of Tyndall effect), state of the iris and of the posterior segment of the eye. With a Goldmann lens, the state of the back of the eye was examined. The presence of signs of inflammation (hyperemia, exudate, cloudiness of the liquids, etc.) was recorded.
Values are expressed as percentages (number of eyes without signs of phlogosis out of the total number of eyes treated). In brackets are the number of treated eyes.

[1] = 10 days from start of phlogosis
[2] = 12 days from start of phlogosis
[3] = 14 days from start of phlogosis
[4] = 16 days from start of phlogosis

| Compound | eyes without signs of phlogosis out of the total number of eyes treated (2 days from start of phlogosis) | eyes without signs of phlogosis out of the total number of eyes treated (4 days from start of phlogosis) | eyes without signs of phlogosis out of the total number of eyes treated (6 days from start of phlogosis) | eyes without signs of phlogosis out of the total number of eyes treated (8 days from start of phlogosis) | eyes without signs of phlogosis out of the total number of eyes treated [1] | eyes without signs of phlogosis out of the total number of eyes treated [2] | eyes without signs of phlogosis out of the total number of eyes treated [3] | eyes without signs of phlogosis out of the total number of eyes treated [4] | antiinflammatory activity (in words) |
| --- | --- | --- | --- | --- | --- | --- | --- | --- | --- |
| C[C@]12CCC(=O)C=C1CC[C@@H]1[C@@H]2C(=O)C[C@@]2(C)[C@H]1CC[C@]2(O)C(=O)CO [Cortisone, cortisone, reference compound] | 0.0% | 0.0% | 0.0% | 0.0% | 25.0% | 50.0% | 100.0% | 100.0% | – |
| C[C@]12CCC(=O)C=C1CC[C@H]1[C@@H]3CC[C@](O)(C(=O)CO)[C@@]3(C)C[C@H](O)[C@@]12F [Fluorocortis., 9 fluorohydrocortisone, reference compound] | 0.0% | 0.0% | 0.0% | 0.0% | 25.0% | 50.0% | 100.0% | 100.0% | – |
| (mixed ethanol and cortisone ester (C21) of hyaluronic acid (HY) [HYC4] | 0.0% | 0.0% | 25.0% | 50.0% | 50.0% | 100.0% | 100.0% | 100.0% | most efficient of these derivatives |
| (mixed) ethanol and fluorocortisone ester (C21) of hyaluronic acid (HY) [HYC6] | 0.0% | 0.0% | 25.0% | 50.0% | 50.0% | 100.0% | 100.0% | 100.0% | most efficient of these derivatives |
| (partial and mixed) ethanol and cortisone ester of hyaluronic acid (HY) [HYC7] | 0.0% | 0.0% | 0.0% | 25.0% | 50.0% | 100.0% | 100.0% | 100.0% | – |
| (partial and mixed) ethanol and fluorocortisone esters (C21) of hyaluronic acid (HY) [HYC9] | 0.0% | 0.0% | 0.0% | 25.0% | 25.0% | 50.0% | 100.0% | 100.0% | – |
